In patent US20210145771A1, “N-(3-(2-(4-CHLOROPHENOXY)ACETAMIDO)BICYCLO[1.1.1] PENTAN-1-YL)-2-CYCLOBUTANE-1- CARBOXAMIDE DERIVATIVES AND RELATED COMPOUNDS AS ATF4 INHIBITORS FOR TREATING CANCER AND OTHER DISEASES” (GlaxoSmithKline Intellectual Property Development Limited, priority 2017, published 2021):
pIC50: −log10 of the molar value. Structures can show the parent of a compound that is named as a salt.

System: ATF4 pathway
Assay: ATF4 Cell Based Assay (ATF4 reporter assay, NanoLuc luciferase)
Conditions: SH-SY5Y-ATF4-NanoLuc cells challenged with Thapsigargin for 14-18 hours; average of two or more experimental runs; read-out: average ATF4 pathway inhibitory activity (IC50)
Excerpt: The ATF4 reporter assay measures the effect of Thapsigargin induced cellular stress on ATF4 expression. For this reporter assay, a stable cell line was created by transfecting SH-SY5Y cells with a plasmid containing the NanoLuc® luciferase gene fused to the 5′-UTR of ATF4, under the control of the CMV promoter. The ATF4 5′-UTR contains two open reading frames which mediate the cellular stress-dependent translation of the reporter gene. Clones stably expressing the reporter construct were isolated and selected based on the luminescence response to thapsigargin and inhibition of this signal by test compounds. Briefly, SH-SY5Y-ATF4-NanoLuc cells were challenged with Thapsigargin for 14-18 hours to determine the stress effect with or without test compounds.
Cells were propagated in growth media consisting of 90% DMEM F12 (InVitrogen #11320-033), 10% Fetal Bovine Serum (Gibco #10438-026), 5 mM Glutamax (Gibco #35050-061), 5 mM Hepes, (Gibco #15630-080), and 0.5 mg/ml Geneticin (Gibco #10131-027). Cells were prepared for the assay by removing all media from cells, washing the plated cells with phosphate buffered saline, and detached by adding a solution comprised of 10% Tryple express solution (InVitrogen12604-021) and 90% enzyme-free cell dissociation buffer HANKS base (Gibco 13150-016). The trypsin was deactivated by adding assay media comprised of 90% phenol-red free DMEM F12 (InVitrogen, 11039), 10% Fetal Bovine Serum (Gibco #10438-026), (5 mM Glutamax (Gibco #35050-061), 5 mM Hepes, (Gibco #15630-080), and 0.5 mg/ml Geneticin (Gibco #10131-027). Suspended cells were spun down at 300 g for 5 min, the supernatant was removed and the cell pellet was suspended in warm media (30-37° C.) comprised as above but without 10% Fetal Bovine Serum to a concentration of 1e6 cells/ml.
Assay plates were prepared by adding 250 nL of compound stock solution in 100% DMSO to each well, followed by dispensing 20 microliters/well cell suspension to deliver 15-20 k cell/well. Cells were incubated for 1 hour at 37° C. […]
The measurement of luciferase produced by the ATF4 constructs was measured as follows. Aliquots of the Nano-Glo reagent (Nano-Glo® Luciferase Assay Substrate, Promega, N113, Nano-Glo® Luciferase Assay Buffer, Promega, N112 (parts of Nano-Glo® Luciferase Assay System, N1150) were brought to room temperature, the substrate and buffer were mixed according to manufacturer's instructions. The cell plates were equilibrated to room temperature. 25 microliters/well of the mixed Nano-Glo reagent were dispensed into assay wells and pulse spun to settle contents and the plate was sealed with film. The plates were incubated at room temperature for 1 hour before detecting luminescence on an EnVision® plate reader.

pIC50	Compound
5.20	Cc1ccc(OCC(=O)NC23CC(NC(=O)COC4(C)CC4)(C2)C3)cc1 [Example 20, 2-(1-methylcyclopropoxy)-N-(3-(2-(p-tolyloxy)acetamido)bicyclo[1.1.1]pentan-1-yl)acetamide]
5.32	O=C(COc1ccc(Cl)cc1)NC12CC(NC(=O)C3CCCO3)(C1)C2 (stereo not shown) [Example 32, N-(3-(2-(4-chlorophenoxy)acetamido)bicyclo[1.1.1]pentan-1-yl)tetrahydrofuranyl-2-carboxamide]
5.49	O=C(COc1ccc(Cl)cc1)NC12CC(NC(=O)C3CCC3)(C1)C2 [Example 34, N-(3-(2-(4-chlorophenoxy)acetamido)bicyclo[1.1.1]pentan-1-yl)cyclobutanecarboxamide]
5.47	O=C(COc1ccc(Cl)cc1)NC12CC(NC(=O)C3CCCN3)(C1)C2 (stereo not shown) [Example 53, N-(3-(2-(4-chlorophenoxy)acetamido)bicyclo[1.1.1]pentan-1-yl)pyrrolidinyl-2-carboxamide hydrochloride]
